From patent publication US10052331B2, “3-(3H-imidazo[4,5-C]pyridin-2-yl)-1H-pyrazolo[3,4-C]pyridine and therapeutic uses thereof” (Samumed, LLC, priority 2014, dated 2018)

What was measured:
[1] = tested on: primary human fibroblasts derived from IPF patients (LL29 cells); experiment: Inhibition of fibrotic process: αSMA staining in TGF-β1-treated primary human fibroblasts from IPF patients (LL29 cells); assay type: cell-based; details: Fibroblast, 96 h, LL29 cells treated with TGF-β1 (20 ng/mL), 4 days, 11-point dose-response from 10 μM to 1.87 nM, read-out: Inhibition of fibrosis EC50
How it was run: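 LL29 IPF lung fibroblasts in F12 with 1% FBS, compound (11-point, 10 μM to 1.87 nM, 0.1% DMSO) plus TGF-β1 20 ng/mL for 4 days at 37° C. αSMA-positive % of SYTOX-negative cells by immunofluorescence imaging, normalized to TGF-β1 wells; EC50 from non-linear regression of triplicates.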

[2] = tested on: Wnt activity (Wnt-responsive Sp5 promoter-luciferase reporter in SW480 cells); experiment: Wnt activity screening assay: Sp5-Luc reporter gene in SW480 colon carcinoma cells; assay type: cell-based; details: Homo sapiens
How it was run: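 IC50 values come from variable-slope four-parameter fits of luciferase signal normalized to DMSO wells. Stable Sp5-Luc reporter SW480 colon carcinoma cells were exposed to compounds in a 3-fold dilution series (source plates from 10 mM stock) for forty-two hours at 37 °C.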

IC50 [2] [nM]	Compound	EC50 [1] [nM]
6.5	CCCC(=O)Nc1cncc(-c2cc3c(-c4nc5c(-c6ccc(C)s6)cncc5[nH]4)n[nH]c3cn2)c1 [Compound 355, N-(5-(3-(7-(5-Methylthiophen-2-yl)-3H-imidazo[4,5-c]pyridin-2-yl)-1H-pyrazolo[3,4-c]pyridin-5-yl)pyridin-3-yl)butyramide]	148
58	CS(=O)(=O)NCc1cc(F)cc(-c2cncc3[nH]c(-c4n[nH]c5cnc(-c6cncc(CNCc7ccccc7)c6)cc45)nc23)c1 [Compound 413, N-(3-(2-(5-(5-((Benzylamino)methyl)pyridin-3-yl)-1H-pyrazolo[3,4-c]pyridin-3-yl)-3H-imidazo[4,5-c]pyridin-7-yl)-5-fluorobenzyl)methanesulfonamide]	≥ 9990
> 10000	CS(=O)(=O)NCc1cc(F)cc(-c2cncc3[nH]c(-c4n[nH]c5cnc(-c6cncnc6)cc45)nc23)c1 [Compound 416, N-(3-Fluoro-5-(2-(5-(pyrimidin-5-yl)-1H-pyrazolo[3,4-c]pyridin-3-yl)-3H-imidazo[4,5-c]pyridin-7-yl)benzyl)methanesulfonamide]	≥ 9990

Further lines, the compound ahead of its results:

Compound	IC50 [2] [nM]	EC50 [1] [nM]
CCCCC(=O)Nc1cncc(-c2cc3c(-c4nc5c(-c6ccc(C)s6)cncc5[nH]4)n[nH]c3cn2)c1 [Compound 356, N-(5-(3-(7-(5-Methylthiophen-2-yl)-3H-imidazo[4,5-c]pyridin-2-yl)-1H-pyrazolo[3,4-c]pyridin-5-yl)pyridin-3-yl)pentanamide]	17.6	110
Cc1ccc(-c2cncc3[nH]c(-c4n[nH]c5cnc(-c6cncc(NC(=O)C7CCCC7)c6)cc45)nc23)s1 [Compound 359, N-(5-(3-(7-(5-Methylthiophen-2-yl)-3H-imidazo[4,5-c]pyridin-2-yl)-1H-pyrazolo[3,4-c]pyridin-5-yl)pyridin-3-yl)cyclopentanecarboxamide]	33.5	689
Cc1ccncc1-c1cc2c(-c3nc4c(-c5cc(F)cc(CNS(C)(=O)=O)c5)cncc4[nH]3)n[nH]c2cn1 [Compound 395, N-(3-Fluoro-5-(2-(5-(4-methylpyridin-3-yl)-1H-pyrazolo[3,4-c]pyridin-3-yl)-3H-imidazo[4,5-c]pyridin-7-yl)benzyl)methanesulfonamide]	46.7	≤ 9
CS(=O)(=O)NCc1cc(F)cc(-c2cncc3[nH]c(-c4n[nH]c5cnc(-c6cncc(NC(=O)c7ccccc7)c6)cc45)nc23)c1 [Compound 401, N-(5-(3-(7-(3-Fluoro-5-(methylsulfonamidomethyl)phenyl)-3H-imidazo[4,5-c]pyridin-2-yl)-1H-pyrazolo[3,4-c]pyridin-5-yl)pyridin-3-yl)benzamide]	774	≥ 9990
CS(=O)(=O)NCc1cc(F)cc(-c2cncc3[nH]c(-c4n[nH]c5cnc(-c6cncc(NC(=O)C7CCC7)c6)cc45)nc23)c1 [Compound 410, N-(5-(3-(7-(3-Fluoro-5-(methylsulfonamidomethyl)phenyl)-3H-imidazo[4,5-c]pyridin-2-yl)-1H-pyrazolo[3,4-c]pyridin-5-yl)pyridin-3-yl)cyclobutanecarboxamide]	29.6	475
CN(C)CCNc1cc(F)cc(-c2cncc3[nH]c(-c4n[nH]c5cnc(-c6cncc(N(C)C)c6)cc45)nc23)c1 [Compound 423]	482	2030
CC(C)Nc1cncc(-c2cc3c(-c4nc5c(-c6cc(F)cc(NCCN(C)C)c6)cncc5[nH]4)n[nH]c3cn2)c1 [Compound 428, N^1-(3-Fluoro-5-(2-(5-(5-(isopropylamino)pyridin-3-yl)-1H-pyrazolo[3,4-c]pyridin-3-yl)-3H-imidazo[4,5-c]pyridin-7-yl)phenyl)-N2,N2-dimethylethane-1,2-diamine]	175	≥ 9990
